In patent publication US20090036448A1, “PYRIMIDINE DERIVATIVES AND METHODS OF TREATMENT RELATED TO THE USE THEREOF” (TAISHO PHARMECUTICAL CO., LTD., priority 2004, published 2009):

What follows are compounds tested against MCH receptor (Homo sapiens, UniProt Q99705) (assay: Receptor binding assay with Radiolabelled MCH Ligand). Conditions: class by percent of control at 10^-7 M or IC50.
Set-up: expressed in transfected cells; host or cells: 293 cells (human kidney, ATCC), transient transfection; crude membranes
Summary of the method: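 This was a filtration radioligand displacement assay: compounds, first tested at 1 and 0.1 μM and then over a range, inhibited binding of a labelled MCH ligand to transfected 293-cell membranes at room temperature for 60–120 min. Specific binding excluded a cold-MCH nonspecific signal. Ki was derived from IC50 via Cheng-Prusoff, using an independently measured KD.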

MCH receptor, sequence (Q99705 whole entry): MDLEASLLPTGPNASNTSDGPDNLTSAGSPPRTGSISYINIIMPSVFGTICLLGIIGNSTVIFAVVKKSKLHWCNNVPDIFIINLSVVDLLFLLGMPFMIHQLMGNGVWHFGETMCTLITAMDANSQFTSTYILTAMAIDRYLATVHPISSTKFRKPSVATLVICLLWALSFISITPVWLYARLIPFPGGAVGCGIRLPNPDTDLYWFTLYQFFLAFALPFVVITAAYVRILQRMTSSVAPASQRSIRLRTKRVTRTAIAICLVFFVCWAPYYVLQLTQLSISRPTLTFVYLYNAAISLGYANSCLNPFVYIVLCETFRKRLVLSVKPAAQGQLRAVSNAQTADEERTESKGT

SMILES	class
Cc1nc(N[C@H]2CC[C@@H](NC(=O)c3cc(C(C)(C)C)nn3Cc3ccccc3)CC2)cc(N(C)C)n1 [compound 267]	3 (Class 3: The value of percent of control at 10^−7 M was more than 60% or the value of IC50 was more than 200 nM.)
Cc1nc(N[C@H]2CC[C@@H](NC(=O)C(C)(C)Oc3ccc(Cl)cc3)CC2)cc(N(C)C)n1 [compound 268]	3 (Class 3: The value of percent of control at 10^−7 M was more than 60% or the value of IC50 was more than 200 nM.)
Cc1nc(N[C@H]2CC[C@@H](NC(=O)/C=C/c3ccc(OC(F)(F)F)cc3)CC2)cc(N(C)C)n1 [compound 269]	3 (Class 3: The value of percent of control at 10^−7 M was more than 60% or the value of IC50 was more than 200 nM.)
Cc1nc(N[C@H]2CC[C@@H](NC(=O)c3cc(C(C)(C)C)nn3Cc3ccc(Cl)cc3Cl)CC2)cc(N(C)C)n1 [compound 270]	3 (Class 3: The value of percent of control at 10^−7 M was more than 60% or the value of IC50 was more than 200 nM.)
Cc1nc(N[C@H]2CC[C@@H](NC(=O)C3=Cc4cc(Cl)ccc4OC3)CC2)cc(N(C)C)n1 [compound 271]	3 (Class 3: The value of percent of control at 10^−7 M was more than 60% or the value of IC50 was more than 200 nM.)
Cc1nc(N[C@H]2CC[C@@H](NC(=O)c3cnn(C)c3Cl)CC2)cc(N(C)C)n1 [compound 272]	3 (Class 3: The value of percent of control at 10^−7 M was more than 60% or the value of IC50 was more than 200 nM.)
Cc1nc(N[C@H]2CC[C@@H](NC(=O)COc3cccc4c(C)cc(=O)oc34)CC2)cc(N(C)C)n1 [compound 273]	3 (Class 3: The value of percent of control at 10^−7 M was more than 60% or the value of IC50 was more than 200 nM.)
Cc1nc(N[C@H]2CC[C@@H](NC(=O)CN3C(=O)c4ccccc4C3=O)CC2)cc(N(C)C)n1 [compound 274]	3 (Class 3: The value of percent of control at 10^−7 M was more than 60% or the value of IC50 was more than 200 nM.)
CC(=O)c1ccc(OCC(=O)N[C@H]2CC[C@@H](Nc3cc(N(C)C)nc(C)n3)CC2)cc1 [compound 275]	3 (Class 3: The value of percent of control at 10^−7 M was more than 60% or the value of IC50 was more than 200 nM.)
Cc1nc(N[C@H]2CC[C@@H](NC(=O)C3CCCC[C@@H]3NC(=O)c3ccccc3)CC2)cc(N(C)C)n1 (stereo partly drawn) [compound 276]	3 (Class 3: The value of percent of control at 10^−7 M was more than 60% or the value of IC50 was more than 200 nM.)
Cc1nc(N[C@H]2CC[C@@H](NC(=O)CC3=CCCCC3)CC2)cc(N(C)C)n1 [compound 278]	3 (Class 3: The value of percent of control at 10^−7 M was more than 60% or the value of IC50 was more than 200 nM.)
Cc1nc(N[C@H]2CC[C@@H](NC(=O)CC3CCCCC3)CC2)cc(N(C)C)n1 [compound 279]	3 (Class 3: The value of percent of control at 10^−7 M was more than 60% or the value of IC50 was more than 200 nM.)
Cc1ccnc(SCC(=O)N[C@H]2CC[C@@H](Nc3cc(N(C)C)nc(C)n3)CC2)n1 [compound 280]	3 (Class 3: The value of percent of control at 10^−7 M was more than 60% or the value of IC50 was more than 200 nM.)
Cc1nc(N[C@H]2CC[C@@H](NC(=O)c3cc(C)n(Cc4cccs4)c3C)CC2)cc(N(C)C)n1 [compound 283]	3 (Class 3: The value of percent of control at 10^−7 M was more than 60% or the value of IC50 was more than 200 nM.)
Cc1nc(N[C@H]2CC[C@@H](NC(=O)c3ccc(I)o3)CC2)cc(N(C)C)n1 [compound 285, N-(cis-4-{[6-(dimethylamino)-2-methylpyrimidin-4-yl]amino}cyclohexyl)-5-iodo-2-furamide]	3 (Class 3: The value of percent of control at 10^−7 M was more than 60% or the value of IC50 was more than 200 nM.)
Cc1nc(N[C@H]2CC[C@@H](NC(=O)Cc3ccccc3I)CC2)cc(N(C)C)n1 [compound 287]	3 (Class 3: The value of percent of control at 10^−7 M was more than 60% or the value of IC50 was more than 200 nM.)
Cc1ccc(-c2cc(C(=O)N[C@H]3CC[C@@H](Nc4cc(N(C)C)nc(C)n4)CC3)cs2)cc1 [compound 288]	3 (Class 3: The value of percent of control at 10^−7 M was more than 60% or the value of IC50 was more than 200 nM.)
Cc1nc(N[C@H]2CC[C@@H](NC(=O)Cc3nc(-c4ccccc4)sc3C)CC2)cc(N(C)C)n1 [compound 289]	3 (Class 3: The value of percent of control at 10^−7 M was more than 60% or the value of IC50 was more than 200 nM.)
COc1ccc2c(CC(=O)N[C@H]3CC[C@@H](Nc4cc(N(C)C)nc(C)n4)CC3)cc(=O)oc2c1 [compound 291]	3 (Class 3: The value of percent of control at 10^−7 M was more than 60% or the value of IC50 was more than 200 nM.)
Cc1nc(N[C@H]2CC[C@@H](NC(=O)CCC(=O)c3ccc(S(C)(=O)=O)cc3)CC2)cc(N(C)C)n1 [compound 292]	3 (Class 3: The value of percent of control at 10^−7 M was more than 60% or the value of IC50 was more than 200 nM.)

SMILES	class
COc1ccc2[nH]c(C(=O)N[C@H]3CC[C@@H](Nc4cc(N(C)C)nc(C)n4)CC3)cc2c1 [compound 293]	3 (Class 3: The value of percent of control at 10^−7 M was more than 60% or the value of IC50 was more than 200 nM.)
Cc1nc(N[C@H]2CC[C@@H](NC(=O)Cc3ccccc3C(=O)Nc3ccc(F)cc3F)CC2)cc(N(C)C)n1 [compound 294]	3 (Class 3: The value of percent of control at 10^−7 M was more than 60% or the value of IC50 was more than 200 nM.)
COc1ccc(OC)c(NC(=O)Cc2ccccc2C(=O)N[C@H]2CC[C@@H](Nc3cc(N(C)C)nc(C)n3)CC2)c1 [compound 295]	3 (Class 3: The value of percent of control at 10^−7 M was more than 60% or the value of IC50 was more than 200 nM.)
Cc1nc(N[C@H]2CC[C@@H](NC(=O)Cc3ccccc3C(=O)Nc3ccc(C(C)C)cc3)CC2)cc(N(C)C)n1 [compound 296]	3 (Class 3: The value of percent of control at 10^−7 M was more than 60% or the value of IC50 was more than 200 nM.)
Cc1nc(N[C@H]2CC[C@@H](NC(=O)Cc3ccccc3C(=O)Nc3ccc(OC(F)(F)F)cc3)CC2)cc(N(C)C)n1 [compound 297]	3 (Class 3: The value of percent of control at 10^−7 M was more than 60% or the value of IC50 was more than 200 nM.)
Cc1nc(N[C@H]2CC[C@@H](NC(=O)CCCc3ccc([N+](=O)[O-])cc3)CC2)cc(N(C)C)n1 [compound 298]	3 (Class 3: The value of percent of control at 10^−7 M was more than 60% or the value of IC50 was more than 200 nM.)
Cc1nc(N[C@H]2CC[C@@H](NC(=O)Cc3ccc(Oc4ccccc4)cc3)CC2)cc(N(C)C)n1 [compound 300]	3 (Class 3: The value of percent of control at 10^−7 M was more than 60% or the value of IC50 was more than 200 nM.)
Cc1nc(N[C@H]2CC[C@@H](NC(=O)CCCCCCCCCCc3ccccc3)CC2)cc(N(C)C)n1 [compound 301]	3 (Class 3: The value of percent of control at 10^−7 M was more than 60% or the value of IC50 was more than 200 nM.)
Cc1nc(N[C@H]2CC[C@@H](NC(=O)CSc3ccncc3)CC2)cc(N(C)C)n1 [compound 302]	3 (Class 3: The value of percent of control at 10^−7 M was more than 60% or the value of IC50 was more than 200 nM.)
Cc1nc(N[C@H]2CC[C@@H](NC(=O)CNc3ccccc3)CC2)cc(N(C)C)n1 [compound 303]	3 (Class 3: The value of percent of control at 10^−7 M was more than 60% or the value of IC50 was more than 200 nM.)
Cc1nc(N[C@H]2CC[C@@H](NC(=O)c3ccccc3C(=O)c3ccc(F)cc3)CC2)cc(N(C)C)n1 [compound 304]	3 (Class 3: The value of percent of control at 10^−7 M was more than 60% or the value of IC50 was more than 200 nM.)
Cc1nc(N[C@H]2CC[C@@H](NC(=O)c3ccccc3CCc3ccccc3)CC2)cc(N(C)C)n1 [compound 305]	3 (Class 3: The value of percent of control at 10^−7 M was more than 60% or the value of IC50 was more than 200 nM.)
CCSC(C(=O)N[C@H]1CC[C@@H](Nc2cc(N(C)C)nc(C)n2)CC1)(c1ccccc1)c1ccccc1 [compound 306, N-(cis-4-{[6-(dimethylamino)-2-methylpyrimidin-4-yl]amino}cyclohexyl)-2-(ethylthio)-2,2-diphenylacetamide]	1 (Class 1: The value of percent of control at 10^−7 M was less than 40% or the value of IC50 was less than 50 nM.)
Cc1nc(N[C@H]2CC[C@@H](NC(=O)c3ccccc3-c3ccc(C(F)(F)F)cc3)CC2)cc(N(C)C)n1 [compound 307]	3 (Class 3: The value of percent of control at 10^−7 M was more than 60% or the value of IC50 was more than 200 nM.)
Cc1nc(N[C@H]2CC[C@@H](NC(=O)c3cccc4c3-c3ccc([N+](=O)[O-])cc3C4)CC2)cc(N(C)C)n1 [compound 308]	3 (Class 3: The value of percent of control at 10^−7 M was more than 60% or the value of IC50 was more than 200 nM.)
Cc1nc(N[C@H]2CC[C@@H](NC(=O)[C@@H](C)c3cccc(C(=O)c4ccccc4)c3)CC2)cc(N(C)C)n1 [compound 309]	3 (Class 3: The value of percent of control at 10^−7 M was more than 60% or the value of IC50 was more than 200 nM.)
Cc1nc(N[C@H]2CC[C@@H](NC(=O)Cc3ccc(OC(F)(F)F)cc3)CC2)cc(N(C)C)n1 [compound 313]	3 (Class 3: The value of percent of control at 10^−7 M was more than 60% or the value of IC50 was more than 200 nM.)
Cc1nc(N[C@H]2CC[C@@H](NC(=O)Cc3ccc(SC(F)(F)F)cc3)CC2)cc(N(C)C)n1 [compound 315]	3 (Class 3: The value of percent of control at 10^−7 M was more than 60% or the value of IC50 was more than 200 nM.)
Cc1nc(N[C@H]2CC[C@@H](NC(=O)CCCCc3cccs3)CC2)cc(N(C)C)n1 [compound 316]	3 (Class 3: The value of percent of control at 10^−7 M was more than 60% or the value of IC50 was more than 200 nM.)
